# Results published in patent US20160264593A1 (priority 2013, published 2016).
# Assay: in vivo
# Details: male, rat, in vivo; for AUC(0-t): AUC0-t of 100; for AUC(0-inf): AUC0-∞ of 100; for Cmax: Cmax of 100; for Tmax: Tmax of 100; for MRT: MRT of 100; for half-life: T1/2 of 100
# Experimental: A pharmacokinetic study of 151 was conducted in SD rats. The study consisted of two dose levels at 1.0 (iv) and 10 (oral) mg/kg. The blood samples were collected at predetermined times from rats and centrifuged to separate plasma. An LC/MS/MS method was developed to determine the test article in plasma samples. The pharmacokinetic parameters of 151 following iv and oral administration to SD rats were calculated. The absolute bioavailability was evaluated.
# The final concentration of the test article was 0.2 mg/mL for iv administration and 1.0 mg/mL for oral administration. The test article solutions were administered using the most recent body weight for each animal.
# Blood (approximately 0.3 mL) were collected via orbital plexus into tubes containing sodium heparin at 0.25, 0.5, 1, 2, 3, 5, 7, 9, and 24 hours after oral administration; at 5 min, 15 min, 0.5, 1, 2, 3, 5, 7, 9 and 24 hours after iv administration. Samples were centrifuged for 5 min, at 4° C. with the centrifuge set at 11,000 rpm to separate plasma. The obtained plasma samples were stored frozen at a temperature of about −70° C. until analysis.
# Frozen plasma samples were thawed at room temperature and vortexed thoroughly. With a pipette, an aliquot (30 μL) of plasma was transferred into a 1.5-mL conical polypropylene tube. To each sample, 160 μL of acetonitrile were added. The samples were then vigorously vortex-mixed for 1 min. After centrifugation at 11000 rpm for 5 min, a 15 μL aliquot of the supernatant was injected into the LC-MS/MS system for analysis.
# Calibration standards were prepared by spiking 30 μL of the 151 standard solutions into 30 μL of heparinized blank rat plasma. The nominal standard concentrations in the standard curve were 1.00, 3.00, 10.0, 30.0, 100, 300, 1000 and 3000 ng/mL.
# The analysis was performed using an LC-MS/MS system consisting of the following components—HPLC system: Agilent 1200 series instrument consisting of G1312B vacuum degasser, G1322A binary pump, G1316B column oven and G1367D autosampler (Agilent, USA); MS/MS system: Agilent 6460 triple quadrupole mass spectrometer, equipped with an APCI Interface (Agilent, USA); Data system: MassHunter Software (Agilent, USA).
# Chromatographic separation was carried out at room temperature—Analytical column: C8 column (4.6 mm×150 mm I.D., 5 μm, Agilent, USA); Mobile phase: Acetonitrile:10 mM ammonium acetate (75:25, v/v); Flow rate: 0.80 mL/min; Injection volume: 15 μL.
# The mass spectrometer was operated in the positive mode. Ionization was performed applying the following parameters: gas temperature, 325° C.; vaporizer temperature, 350° C.; gas flow, 4 L/min; nebulizer, 20 psi; capillary voltage, 4500 V; corona current, 4 μA. 151 was detected using MRM of the transitions m/z 283→m/z 123 and m/z 283→m/z 251, simultaneously. The optimized collision energies of 25 eV and 10 eV were used for m/z 123 and m/z 251, respectively.
# Quantification was achieved by the external standard method. Concentrations of the test article were calculated using a weighted least-squares linear regression (W=1/x^2).
# The pharmacokinetic parameters were evaluated using WinNonlin version 5.3 (Pharsight Corp., Mountain View, Calif., USA), assuming a non-compartmental model for drug absorption and distribution. • AUC0-t is the area under the plasma concentration-time curve from time zero to last sampling time, calculated by the linear trapezoidal rule. • AUC0-∞ is the area under the plasma concentration-time curve from time zero extrapolating to infinity. • T1/2 is the elimination half-life associated with the terminal (log-linear) elimination phase, which is estimated via linear regression of time vs. log concentrations. • CL is the total body clearance. • Vss is the volume of distribution at steady-state.
# [1] = Sprague-Dawley (SD), iv, 1 mg/kg, Plasma Concentration of 100
# [2] = Sprague-Dawley (SD), po, 10 mg/kg
# [3] = Sprague-Dawley (SD), po, 10 mg/kg, Plasma Concentration of 100
smiles,measurement,setting,value
"CN1CCN(C(=O)C2C3CCC(O3)C2C(=O)O)CC1 (centres unmarked) [Compound 100, 3-(4-methylpiperazine-1-carbonyl)-7-oxa-bicyclo[2,2,1]-heptane-2-carboxylic acid]",concentration at 0.083 h,[1],646 ng/mL
same,concentration at 0.25 h,[1],345 ng/mL
same,concentration at 0.5 h,[1],308 ng/mL
same,concentration at 1 h,[1],257 ng/mL
same,concentration at 2 h,[1],125 ng/mL
same,concentration at 3 h,[1],32.2 ng/mL
same,concentration at 5 h,[1],10.2 ng/mL
same,AUC(0-t),[2],3370 ng·h/mL
same,AUC(0-inf),[2],3430 ng·h/mL
same,Cmax,[2],1450 ng/mL
same,concentration at 0.5 h,[3],1450 ng/mL
same,concentration at 1 h,[3],1160 ng/mL
same,concentration at 2 h,[3],781 ng/mL
same,concentration at 9 h,[3],31.3 ng/mL
same,Tmax,[2],40.2 min
same,AUC(0-t),"Sprague-Dawley, iv, 1 mg/kg",681 ng·h/mL
same,AUC(0-inf),"Sprague-Dawley, iv, 1 mg/kg",694 ng·h/mL
same,Cmax,"Sprague-Dawley, iv, 1 mg/kg",646 ng/mL
same,MRT,"Sprague-Dawley, iv, 1 mg/kg",1.16 h
same,half-life,"Sprague-Dawley, iv, 1 mg/kg",52.8 min
same,Tmax,"Sprague-Dawley, iv, 1 mg/kg",4.98 min
same,Cmax of 100,"Sprague-Dawley, po, 10 mg/kg",1447 ng/mL
same,Tmax of 100,"Sprague-Dawley, po, 10 mg/kg",30 min
same,AUC(0-t),"Sprague-Dawley, po, 10 mg/kg",2800 ng·h/mL
same,AUC(0-inf),"Sprague-Dawley, po, 10 mg/kg",2860 ng·h/mL
same,Cmax,"Sprague-Dawley, po, 10 mg/kg",1430 ng/mL
same,MRT,"Sprague-Dawley, po, 10 mg/kg",2.1 h
same,half-life,"Sprague-Dawley, po, 10 mg/kg",82.8 min
same,Tmax,"Sprague-Dawley, po, 10 mg/kg",30 min
